Results reported in the supplement of paper PMC10627819.

Legend:
[1] = system: S. pneumoniae D39V; assay: Bliss interaction score (quartile over a dose matrix) (fitness difference); higher = more antagonism (negative = synergy)
In short: (§1)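 The Bliss score is observed minus expected fitness under the product model, reported as quartiles over technical, biological and donor/recipient replicates. Fitness is the OD595 at entry into stationary phase divided by the plate's robust no-drug mean and capped at 1. Single-drug fitness was inferred from combination data.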

[2] = system: S. aureus Newman; assay: as above
In short: as §1

[3] = system: B. subtilis 168; assay: as above
In short: as §1

[4] = system: S. aureus DSM 20231; assay: as above
In short: as §1

[5] = system: S. pneumoniae D39V; assay: fitness (endpoint OD595 vs no drug) (fraction); higher = more growth
In short: (§2)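 Volumes were 30 µl per well, or 55 µl for S. pneumoniae, in 384-well plates inoculated at OD595 0.01. Media were TSB, LB Lennox or CY at 37 °C, and OD595 was read every 30 min for 14 h with first-reading background subtraction. Fitness is the ratio of optical density at stationary-phase entry to the robust mean of no-drug controls. That ratio is capped at 1.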

[6] = system: S. aureus Newman; assay: as above
In short: as §2

[7] = system: B. subtilis 168; assay: as above
In short: as §2

[8] = first compound 2 µg/mL, partner 0.039 µg/mL
[9] = first compound 2 µg/mL, partner 0.078 µg/mL
[10] = first compound 2 µg/mL, partner 0.156 µg/mL
[11] = first compound 2 µg/mL, partner 0.15 µg/mL
[12] = first compound 2 µg/mL, partner 0.3 µg/mL
[13] = first compound 2 µg/mL, partner 0.6 µg/mL
[14] = first compound 4 µg/mL, partner 0.6 µg/mL
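Throughout, for Bliss interaction score (quartile over a dose matrix): first quartile when negative (synergy) and third quartile when positive (antagonism).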

Compound: CN[C@@H]1[C@H](O[C@H]2[C@H](O[C@H]3[C@H](O)[C@@H](O)[C@H](N=C(N)N)[C@@H](O)[C@@H]3N=C(N)N)O[C@@H](C)[C@]2(O)C=O)O[C@@H](CO)[C@H](O)[C@H]1O [Streptomycin] + CN(C)c1cc(NC(=O)CNC(C)(C)C)c(O)c2c1C[C@H]1C[C@H]3[C@H](N(C)C)C(O)=C(C(N)=O)C(=O)[C@@]3(O)C(O)=C1C2=O [Tigecycline]
- Bliss interaction score [1]: 0.0816
- Bliss interaction score [2]: 0.0427
- Bliss interaction score [3]: 0.145
- Bliss interaction score [4]: 0.064
- fitness ([5]; first compound 2 µg/mL, partner 0.65 µg/mL): 0.96
- fitness ([5]; first compound 2 µg/mL, partner 1.3 µg/mL): 0.973
- fitness ([5]; first compound 2 µg/mL, partner 2.6 µg/mL): 0.891
- fitness ([5]; first compound 4 µg/mL, partner 0.65 µg/mL): 0.968
- fitness ([5]; first compound 4 µg/mL, partner 1.3 µg/mL): 0.989
- fitness ([5]; first compound 4 µg/mL, partner 2.6 µg/mL): 0.962
- fitness ([5]; first compound 8 µg/mL, partner 0.65 µg/mL): 0.88
- fitness ([5]; first compound 8 µg/mL, partner 1.3 µg/mL): 0.938
- fitness ([5]; first compound 8 µg/mL, partner 2.6 µg/mL): 0.914
- fitness ([5]; first compound 16 µg/mL, partner 0.65 µg/mL, one replicate): 0.866
- fitness ([5]; first compound 16 µg/mL, partner 1.3 µg/mL, one replicate): 0.81
- fitness ([5]; first compound 16 µg/mL, partner 2.6 µg/mL, one replicate): 0.829
- fitness ([6]; first compound 1 µg/mL, partner 0.039 µg/mL): 0.94
- fitness ([6]; first compound 1 µg/mL, partner 0.078 µg/mL): 0.986
- fitness ([6]; first compound 1 µg/mL, partner 0.156 µg/mL): 0.971
- fitness [6, 8]: 0.966
- fitness [6, 9]: 0.95
- fitness [6, 10]: 0.989
- fitness [7, 8]: 0.974
- fitness [7, 9]: 0.985
- fitness ([7]; first compound 2 µg/mL, partner 0.125 µg/mL, one replicate): 0.98
- fitness [7, 10]: 0.968
- fitness ([7]; first compound 2 µg/mL, partner 0.25 µg/mL, one replicate): 0.955
- fitness ([7]; first compound 2 µg/mL, partner 0.5 µg/mL, one replicate): 0.951
- fitness ([7]; first compound 4 µg/mL, partner 0.125 µg/mL, one replicate): 0.982
- fitness ([7]; first compound 4 µg/mL, partner 0.25 µg/mL, one replicate): 0.914
- fitness ([7]; first compound 4 µg/mL, partner 0.5 µg/mL, one replicate): ≥ 1
- fitness ([7]; first compound 8 µg/mL, partner 0.125 µg/mL, one replicate): 0.481
- fitness ([7]; first compound 8 µg/mL, partner 0.25 µg/mL, one replicate): 0.474
- fitness ([7]; first compound 8 µg/mL, partner 0.5 µg/mL, one replicate): 0.519

Compound: CN[C@@H]1[C@H](O[C@H]2[C@H](O[C@H]3[C@H](O)[C@@H](O)[C@H](N=C(N)N)[C@@H](O)[C@@H]3N=C(N)N)O[C@@H](C)[C@]2(O)C=O)O[C@@H](CO)[C@H](O)[C@H]1O [Streptomycin] + CN(N=O)C(=O)N[C@@H](C=O)[C@@H](O)[C@H](O)[C@H](O)CO [Streptozotocin]
- Bliss interaction score [1]: 0.062
- Bliss interaction score [2]: 0.0357
- Bliss interaction score [3]: -0.134
- Bliss interaction score [4]: -0.109
- fitness ([5]; first compound 2 µg/mL, partner 1.2 µg/mL): 0.988
- fitness ([5]; first compound 2 µg/mL, partner 2.4 µg/mL): 0.945
- fitness ([5]; first compound 2 µg/mL, partner 4.8 µg/mL): 0.954
- fitness ([5]; first compound 4 µg/mL, partner 1.2 µg/mL): 0.975
- fitness ([5]; first compound 4 µg/mL, partner 2.4 µg/mL): 0.932
- fitness ([5]; first compound 4 µg/mL, partner 4.8 µg/mL): 0.958
- fitness ([5]; first compound 8 µg/mL, partner 1.2 µg/mL): 0.896
- fitness ([5]; first compound 8 µg/mL, partner 2.4 µg/mL): 0.951
- fitness ([5]; first compound 8 µg/mL, partner 4.8 µg/mL): 0.903
- fitness ([5]; first compound 16 µg/mL, partner 1.2 µg/mL, one replicate): 0.744
- fitness ([5]; first compound 16 µg/mL, partner 2.4 µg/mL, one replicate): 0.773
- fitness ([5]; first compound 16 µg/mL, partner 4.8 µg/mL, one replicate): 0.782
- fitness ([6]; first compound 1 µg/mL, partner 0.15 µg/mL): 0.884
- fitness ([6]; first compound 1 µg/mL, partner 0.3 µg/mL): 0.767
- fitness ([6]; first compound 1 µg/mL, partner 0.6 µg/mL): 0.555
- fitness [6, 11]: 0.818
- fitness [6, 12]: 0.649
- fitness [6, 13]: 0.485
- fitness [6, 14]: 0.473
- fitness [7, 11]: 0.954
- fitness [7, 12]: 0.978
- fitness [7, 13]: 0.98
- fitness ([7]; first compound 4 µg/mL, partner 0.15 µg/mL): 0.308
- fitness ([7]; first compound 4 µg/mL, partner 0.3 µg/mL): 0.332
- fitness [7, 14]: 0.266
- fitness ([7]; first compound 8 µg/mL, partner 0.15 µg/mL): 0.0987
- fitness ([7]; first compound 8 µg/mL, partner 0.3 µg/mL): 0.0267
- fitness ([7]; first compound 8 µg/mL, partner 0.6 µg/mL): 0.0223
